Literature values in EP1399019B1, “ADJUVANT COMPOSITIONS AND PESTICIDES” (HUNTSMAN PETROCHEMICAL CORPORATION, priority 2001, dated 2002).
Read-outs that look alike come from different tables or passages of the source.

Structure (SMILES): CNC(=O)CSP(=S)(OC)OC [Cygon, dimethoate]
- time to lose 50 percent of its pest control power (mixed in water of pH 9): 48 min
- time to lose 50 percent of its pest control power (pH of 6): 720 min
